Target: T1, Polyunsaturated fatty acid lipoxygenase ALOX15 (Homo sapiens, UniProt P16050)
T1 sequence (P16050 whole entry): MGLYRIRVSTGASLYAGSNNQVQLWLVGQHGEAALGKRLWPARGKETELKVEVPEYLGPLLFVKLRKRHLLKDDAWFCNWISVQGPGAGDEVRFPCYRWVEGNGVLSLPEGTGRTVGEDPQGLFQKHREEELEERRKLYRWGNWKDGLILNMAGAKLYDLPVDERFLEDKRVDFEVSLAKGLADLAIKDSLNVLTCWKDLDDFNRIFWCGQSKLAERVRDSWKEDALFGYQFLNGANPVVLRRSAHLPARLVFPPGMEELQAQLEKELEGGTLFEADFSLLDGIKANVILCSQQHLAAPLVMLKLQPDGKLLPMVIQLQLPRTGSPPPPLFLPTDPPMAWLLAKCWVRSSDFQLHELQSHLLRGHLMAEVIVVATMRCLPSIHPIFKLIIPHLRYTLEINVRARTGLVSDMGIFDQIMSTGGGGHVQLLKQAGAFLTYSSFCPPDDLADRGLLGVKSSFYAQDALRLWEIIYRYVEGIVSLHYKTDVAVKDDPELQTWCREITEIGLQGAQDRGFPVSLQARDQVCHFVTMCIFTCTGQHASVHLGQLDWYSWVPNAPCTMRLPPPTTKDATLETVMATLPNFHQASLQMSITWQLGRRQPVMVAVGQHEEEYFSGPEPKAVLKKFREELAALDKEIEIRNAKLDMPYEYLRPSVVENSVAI
Experiment: Competitive inhibition of N-terminal His6-tagged human 12/15-LOX using arachidonic acid as substrate by Dixon plot analysis

Ki: 1000 nM
Structure (SMILES): Cc1ccc(O)c(-c2cc(-c3ccccc3C)[nH]n2)c1 [4-methyl-2-[5-(2-methylphenyl)-1H-pyrazol-3-yl]phenol]

Reference: BindingDB's records for doi:10.1016/j.bmc.2016.01.042 (University of California, 2016)
